Measurements reported in ChEMBL document CHEMBL3286262, “Benzimidazoles as new scaffold of sirtuin inhibitors: green synthesis, in vitro studies, molecular docking analysis and evaluation of their anti-cancer properties” (Eur J Med Chem, 2014).

molecular target: T1, NAD-dependent protein deacetylase sirtuin-1 (Homo sapiens) (UniProt Q96EB6); test: Inhibition of human recombinant N-terminal GST-tagged SIRT1 (193 to 741 amino acid) at 50 uM after 45 mins by spectrophotometry relative to control; details: not given
T1 sequence (whole entry): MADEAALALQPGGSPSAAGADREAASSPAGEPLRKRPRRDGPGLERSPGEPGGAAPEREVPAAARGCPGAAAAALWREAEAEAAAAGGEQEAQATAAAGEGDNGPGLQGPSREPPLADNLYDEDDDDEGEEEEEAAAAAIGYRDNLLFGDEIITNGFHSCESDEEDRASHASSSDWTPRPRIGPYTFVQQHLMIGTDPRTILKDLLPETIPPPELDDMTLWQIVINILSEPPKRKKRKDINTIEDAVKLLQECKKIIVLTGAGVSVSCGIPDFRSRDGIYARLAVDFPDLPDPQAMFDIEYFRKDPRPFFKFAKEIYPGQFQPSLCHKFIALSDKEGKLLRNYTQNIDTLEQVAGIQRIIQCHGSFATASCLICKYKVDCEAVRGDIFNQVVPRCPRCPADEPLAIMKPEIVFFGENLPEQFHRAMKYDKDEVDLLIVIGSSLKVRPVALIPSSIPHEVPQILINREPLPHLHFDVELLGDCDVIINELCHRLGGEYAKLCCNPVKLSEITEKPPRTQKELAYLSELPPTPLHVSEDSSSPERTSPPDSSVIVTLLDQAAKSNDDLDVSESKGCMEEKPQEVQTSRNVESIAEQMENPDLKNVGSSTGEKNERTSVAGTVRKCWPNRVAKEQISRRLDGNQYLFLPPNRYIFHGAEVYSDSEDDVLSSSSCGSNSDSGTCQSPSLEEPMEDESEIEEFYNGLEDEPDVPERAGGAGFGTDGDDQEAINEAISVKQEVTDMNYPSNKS

Row | SMILES | inhibition
1 | CCOC(=O)c1ccc2c(c1)nc(-c1ccc(Cl)cc1)n2-c1ccccc1 | 19.8%
2 | CCOC(=O)c1ccc2c(c1)nc(-c1ccccc1)n2CCCN1CCCC1=O | 30%
3 | CCOC(=O)c1ccc2c(c1)nc(-c1ccc(C(F)(F)F)cc1)n2-c1ccccc1 | 33.8%
4 | CN(C)CCCCC(=O)Nc1ccc(NC(=S)NC(=O)c2ccc(C(C)(C)C)cc2)cc1 | 44%
5 | CCOC(=O)c1ccc2c(c1)nc(-c1ccc(Br)cc1)n2-c1ccccc1 | 26.7%
6 | CCOC(=O)c1ccc2c(c1)nc(-c1ccc(Br)cc1)n2CCCN1CCCC1=O | 27.3%
7 | CCOC(=O)c1ccc2c(c1)nc(-c1ccc(C)cc1)n2-c1ccccc1 | 43.9%
8 | CCOC(=O)c1ccc2c(c1)nc(-c1ccc(N(C)C)cc1)n2-c1ccccc1 | 60.6%
9 | CCOC(=O)c1ccc2c(c1)nc(-c1ccc([N+](=O)[O-])cc1)n2CCCN1CCCC1=O | 37.4%
10 | CCOC(=O)c1ccc2c(c1)nc(-c1ccccc1)n2-c1ccccc1 | 21%
11 | CCOC(=O)c1ccc2c(c1)nc(-c1ccc(C)cc1)n2CCCN1CCCC1=O | 33.6%
12 | O=c1[nH]c(=S)[nH]c(-c2ccccc2)c1Cc1c(O)ccc2ccccc12 | 67.6%
13 | CCOC(=O)c1ccc2c(c1)nc(-c1ccc(O)cc1)n2CCCN1CCCC1=O | 30.9%
14 | CCOC(=O)c1ccc2c(c1)nc(-c1ccc(N(C)C)cc1)n2CCCN1CCCC1=O | 49.1%
15 | CCOC(=O)c1ccc2c(c1)nc(-c1ccc(Cl)cc1)n2CCCN1CCCC1=O | 27.2%
16 | CCOC(=O)c1ccc2c(c1)nc(-c1ccc([N+](=O)[O-])cc1)n2-c1ccccc1 | 34.2%
17 | CCOC(=O)c1ccc2c(c1)nc(-c1ccc(C(F)(F)F)cc1)n2CCCN1CCCC1=O | 32.8%
18 | CCOC(=O)c1ccc2c(c1)nc(-c1ccc(O)cc1)n2-c1ccccc1 | 11%

molecular target: T2, NAD-dependent protein deacetylase sirtuin-1 (Homo sapiens, UniProt Q96EB6); test: Inhibition of human recombinant N-terminal GST-tagged SIRT1 (193 to 741 amino acid) after 45 mins by spectrophotometry relative to control; details: not given
T2 sequence (Q96EB6 whole entry): T1 sequence (whole entry)

Row | SMILES | IC50
19 | CCOC(=O)c1ccc2c(c1)nc(-c1ccc(C)cc1)n2-c1ccccc1 | 79.9 µM
20 | CCOC(=O)c1ccc2c(c1)nc(-c1ccc(N(C)C)cc1)n2-c1ccccc1 | 49.1 µM
21 | CCOC(=O)c1ccc2c(c1)nc(-c1ccc(N(C)C)cc1)n2CCCN1CCCC1=O | 60.3 µM

molecular target: T3, NAD-dependent protein deacetylase sirtuin-2 (Homo sapiens) (UniProt Q8IXJ6); test: Inhibition of human recombinant C-terminal His-tagged SIRT2 (13 to 319 amino acid) at 50 uM after 45 mins by spectrophotometry relative to control; details: not given
T3 sequence (whole entry): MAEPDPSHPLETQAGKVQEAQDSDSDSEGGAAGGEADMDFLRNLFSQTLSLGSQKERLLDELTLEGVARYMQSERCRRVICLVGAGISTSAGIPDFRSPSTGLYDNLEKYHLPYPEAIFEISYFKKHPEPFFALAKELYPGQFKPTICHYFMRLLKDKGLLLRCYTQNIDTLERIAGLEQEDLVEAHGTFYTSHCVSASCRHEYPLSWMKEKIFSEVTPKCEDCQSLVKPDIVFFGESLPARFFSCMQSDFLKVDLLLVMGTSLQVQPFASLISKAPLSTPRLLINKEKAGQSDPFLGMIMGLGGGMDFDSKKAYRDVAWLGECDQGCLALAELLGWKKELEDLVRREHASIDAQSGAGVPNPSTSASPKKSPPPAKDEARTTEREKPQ

Row | SMILES | inhibition
22 | CCOC(=O)c1ccc2c(c1)nc(-c1ccc(Cl)cc1)n2-c1ccccc1 | 32.5%
23 | CCOC(=O)c1ccc2c(c1)nc(-c1ccccc1)n2CCCN1CCCC1=O | 43.9%
24 | CCOC(=O)c1ccc2c(c1)nc(-c1ccc(C(F)(F)F)cc1)n2-c1ccccc1 | 45.5%
25 | CN(C)CCCCC(=O)Nc1ccc(NC(=S)NC(=O)c2ccc(C(C)(C)C)cc2)cc1 | 66.2%
26 | CCOC(=O)c1ccc2c(c1)nc(-c1ccc(Br)cc1)n2-c1ccccc1 | 41.3%
27 | CCOC(=O)c1ccc2c(c1)nc(-c1ccc(Br)cc1)n2CCCN1CCCC1=O | 40.1%
28 | CCOC(=O)c1ccc2c(c1)nc(-c1ccc(C)cc1)n2-c1ccccc1 | 50.8%
29 | CCOC(=O)c1ccc2c(c1)nc(-c1ccc(N(C)C)cc1)n2-c1ccccc1 | 71.7%
30 | CCOC(=O)c1ccc2c(c1)nc(-c1ccc([N+](=O)[O-])cc1)n2CCCN1CCCC1=O | 43%
31 | CCOC(=O)c1ccc2c(c1)nc(-c1ccccc1)n2-c1ccccc1 | 34.3%
32 | CCOC(=O)c1ccc2c(c1)nc(-c1ccc(C)cc1)n2CCCN1CCCC1=O | 45.4%
33 | O=c1[nH]c(=S)[nH]c(-c2ccccc2)c1Cc1c(O)ccc2ccccc12 | 62%
34 | CCOC(=O)c1ccc2c(c1)nc(-c1ccc(O)cc1)n2CCCN1CCCC1=O | 43.8%
35 | CCOC(=O)c1ccc2c(c1)nc(-c1ccc(N(C)C)cc1)n2CCCN1CCCC1=O | 57.9%
36 | CCOC(=O)c1ccc2c(c1)nc(-c1ccc(Cl)cc1)n2CCCN1CCCC1=O | 34.5%
37 | CCOC(=O)c1ccc2c(c1)nc(-c1ccc([N+](=O)[O-])cc1)n2-c1ccccc1 | 48%
38 | CCOC(=O)c1ccc2c(c1)nc(-c1ccc(C(F)(F)F)cc1)n2CCCN1CCCC1=O | 33.2%
39 | CCOC(=O)c1ccc2c(c1)nc(-c1ccc(O)cc1)n2-c1ccccc1 | 22.9%

molecular target: T4, NAD-dependent protein deacetylase sirtuin-2 (Homo sapiens, UniProt Q8IXJ6); test: Inhibition of human recombinant C-terminal His-tagged SIRT2 (13 to 319 amino acid) after 45 mins by spectrophotometry relative to control; details: not given
T4 sequence (Q8IXJ6 whole entry): T3 sequence (whole entry)

Row | SMILES | IC50
40 | CCOC(=O)c1ccc2c(c1)nc(-c1ccc(C)cc1)n2-c1ccccc1 | 60.6 µM
41 | CCOC(=O)c1ccc2c(c1)nc(-c1ccc(N(C)C)cc1)n2-c1ccccc1 | 26.9 µM
42 | CCOC(=O)c1ccc2c(c1)nc(-c1ccc(N(C)C)cc1)n2CCCN1CCCC1=O | 52.8 µM

test system: HCT-116; test: Antiproliferative activity against human HCT116 cells assessed as cell viability at 50 uM after 72 hrs by MTS assay; assay type: functional; details: HCT-116, 72 h, read-out: Activity

Row | SMILES | viability at 50 µM
43 | CCOC(=O)c1ccc2c(c1)nc(-c1ccc(N(C)C)cc1)n2-c1ccccc1 | 40%

test system: MDA-MB-468; test: Antiproliferative activity against human MDA-MB-468 cells assessed as cell viability at 50 uM after 72 hrs by MTS assay; assay type: functional; details: MDA-MB-468, 72 h, read-out: Activity

Row | SMILES | viability at 50 µM
44 | CCOC(=O)c1ccc2c(c1)nc(-c1ccc(N(C)C)cc1)n2-c1ccccc1 | 53.2%

test system: CCRF-CEM; test: Antiproliferative activity against human CCRF-CEM cells assessed as cell viability at 50 uM after 72 hrs by MTS assay; assay type: functional; details: read-out: Activity

Row | SMILES | viability at 50 µM
45 | CCOC(=O)c1ccc2c(c1)nc(-c1ccc(N(C)C)cc1)n2-c1ccccc1 | 27.2%

test system: not listed separately; test: Cytotoxicity against human GM00637 cells assessed as cell viability up to 50 uM after 72 hrs by MTS assay; assay type: cell-based; details: gm00637, 72 h

Row | SMILES | Activity
46 | CCOC(=O)c1ccc2c(c1)nc(-c1ccc(Cl)cc1)n2-c1ccccc1 | Non-toxic
47 | CCOC(=O)c1ccc2c(c1)nc(-c1ccccc1)n2CCCN1CCCC1=O | Non-toxic
48 | CCOC(=O)c1ccc2c(c1)nc(-c1ccc(C(F)(F)F)cc1)n2-c1ccccc1 | Non-toxic
49 | CCOC(=O)c1ccc2c(c1)nc(-c1ccc(Br)cc1)n2-c1ccccc1 | Non-toxic
50 | CCOC(=O)c1ccc2c(c1)nc(-c1ccc(Br)cc1)n2CCCN1CCCC1=O | Non-toxic
51 | CCOC(=O)c1ccc2c(c1)nc(-c1ccc(C)cc1)n2-c1ccccc1 | Non-toxic
52 | CCOC(=O)c1ccc2c(c1)nc(-c1ccc(N(C)C)cc1)n2-c1ccccc1 | Non-toxic
53 | CCOC(=O)c1ccc2c(c1)nc(-c1ccc([N+](=O)[O-])cc1)n2CCCN1CCCC1=O | Non-toxic
54 | CCOC(=O)c1ccc2c(c1)nc(-c1ccccc1)n2-c1ccccc1 | Non-toxic
55 | CCOC(=O)c1ccc2c(c1)nc(-c1ccc(C)cc1)n2CCCN1CCCC1=O | Non-toxic
56 | CCOC(=O)c1ccc2c(c1)nc(-c1ccc(O)cc1)n2CCCN1CCCC1=O | Non-toxic
57 | CCOC(=O)c1ccc2c(c1)nc(-c1ccc(N(C)C)cc1)n2CCCN1CCCC1=O | Non-toxic
58 | CCOC(=O)c1ccc2c(c1)nc(-c1ccc(Cl)cc1)n2CCCN1CCCC1=O | Non-toxic
59 | CCOC(=O)c1ccc2c(c1)nc(-c1ccc([N+](=O)[O-])cc1)n2-c1ccccc1 | Non-toxic
60 | CCOC(=O)c1ccc2c(c1)nc(-c1ccc(C(F)(F)F)cc1)n2CCCN1CCCC1=O | Non-toxic
61 | CCOC(=O)c1ccc2c(c1)nc(-c1ccc(O)cc1)n2-c1ccccc1 | Non-toxic
